Tests used:
tracheal smooth muscle = conditions: in vitro; cited from earlier work
gastric secretion = assay: Test B: Inhibition of Rodent Gastric Secretion (pylorus-ligated rat); type: in vivo; conditions: subcutaneous, 2 x 1.5 mg/kg (total 3.0 mg/kg), 4 hours after pyloric ligation
Description: A procedure based on that described by Lipmann (J. Pharm. Pharmacol., 21:335 [ 1968]) was used to assess the influence of test compounds on gastric secretion. Rats of one sex weighing 150 to 200 g were randomly divided into groups of six animals each and fasted for 48 hours previously to the experiments, water being available adlibitum. The animals were anesthetized with ether, the abdomen was opened through a midline incision and the pylorus was ligated. Test compounds were diluted from stock solution so as to administer a dose of 1.5 mg/kg in a volume equivalent to 1 ml/kg. Subcutaneous injections were applied immediately after surgery and again 2 hours later, so that a total dose of 3.0 mg/kg was administered. Dilutions were made with phosphate buffer (pH 7.38) as recommended by Lee et al. (Prostaglandins 3:29 [ 1973]), in order to insure adequate stability of drugs at the subcutaneous depot. Each compound was tested in one group of rats; an additional control group received only the vehicle.
Four hours after pyloric ligation the animals were killed with ether, the cardias ligated and the stomachs removed. The volume of gastric secretion was measured and the contents centrifuged at 5000 rpm for 10 minutes. Total acid in the supernatant was titrated against a 0.1 N sodium hydroxide solution and the amount expressed in mEq.
Volume and total acid values of the treated group were compared with those of the controls by the "T" test. Antisecretory activity was scored according to the following scale: […]

blood pressure = assay: Test D: Decrease in Normal Feline Blood Pressure and Heart Rate (anesthetized cat); type: in vivo; conditions: intravenous, 0.01 to 10.0 mcg/kg, judged only on hypotension
Description: The acute effects of test compounds on blood pressure and heart rate were determined in cats of either sex anesthetized with a mixture of pentobarbital sodium (35 mg/kg, i.v.) and barbital sodium (100 mg/kg, i.v.). Cannulas were placed in the trachea to allow adequate spontaneous ventilation, in a femoral artery for blood pressure recording with a strain gage transducer, and in a saphenous vein for drug administration. Heart rate was recorded by means of a cardiotachometer driven by the R wave of the electrocardiogram. After a period of 10 minutes of stable recordings of blood pressure and heart rate, the test compound was administered intravenously at doses increasing from 0.01 to 10.0 mcg/kg, spaced one log and injected at 10 minutes intervals. All doses were injected in a volume of 0.1 ml/kg. Modifications of blood pressure and heart rate induced by the test compound were expressed both in absolute units (mmHg and beats/minutes) and as percent of values recorded immediately before administration of each dose. Biphasic responses were tabulated in the order in which they occur. The direction of the observed changes was also noted (+ for increases and - for decreases).
Activity of compounds in this test was judged only on the basis of the degree of hypotension observed. Thus, the ED50 mmHg (dose decreasing blood pressure by 50 mmHg) was calculated graphically and the compound scored according to the following scale: […]

femoral blood flow = assay: Test C: Increase in Canidae Femoral Blood Flow; type: in vivo; conditions: anesthetized dog, intraarterial, 0.001 to 10 mcg
Description: The peripheral vasodilator or constrictor effects of test compounds were determined in mongrel dogs of either sex, weighing between 10 and 20 kg anesthestized intravenously with 35 mg/kg of sodium pentobarbital. An external iliac artery was dissected immediately above the femoral arch for a length of approximately 5 cm and a previously calibrated, non-connulating electromagnetic flowmeter sensor with a lumen between 2.5 and 3.5 mm was placed snugly around the vessel. Cannulas were placed in a branch of the artery arising distally to the location of the flowmeter sensor for intraarterial drug administrations, in the contralateral femoral artery for systemic blood pressure recordings and in the trachea for artificial respiration with room air. Femoral blood flow and systemic blood pressure were continuously recorded with an electromagnetic flowmeter and pressure tranducer, respectively.
After an adequate control period, test compounds were injected intraarterially at one log-spaced doses ranging from 0.001 to 10 mcg., in a volume of 0.5 ml and at 5 to 10 minute intervals. Maximum changes in bloodflow, as well as any variations in blood pressure, were tabulated for each dose in absolute values (ml/min. and mmHg). The calculations were made taking as control values those existing immediately before administration of each dose. The direction of the observed change (plus for increase and minus for decrease) was also noted. The dose changing bloodflow by 100 ml/min (ED100 ml/min) was calculated graphically and was used for scoring activity as follows: […]

[1] = tested on: human platelet aggregation; assay: Test A: Inhibition of Human Platelet Aggregation; type: cell-based; conditions: human platelet rich plasma, in vitro, collagen-induced, 37° C, 15 minutes
Description: The ability of test compounds to inhibit platelet aggreagation was determined by a modification of the turbidometric technique of Born (Nature, 194: 927 [1962]). Blood was collected from human volunteer who had not ingested aspirin or aspirin-containing products within the preceding two weeks in heparinized containers and was allowed to settle for one (1) hour. The platelet rich plasma (prp) supernates were collected and cooled. Siliconized glassware was used throughout.
In a representative assay 1.9 ml of PRP and 0.2 ml of test compound at the appropriate concentrations (0.001 to 100 mcgm), or 0.2 ml of distilled water (control procedure) were placed in sample cuvettes. The cuvettes were placed in a 37° C incubation block for 15 minutes, and then in a spectrophotometer linked to a strip chart recorder. After 30-60 seconds, 0.2 ml of a solution, prepared by diluting a calf-skin collagen solution 1:9 with Tyrodes' Solution, was added to each cuvette. Platelet aggregation was evidenced by a decrease in optical density.
An ED50 value was then determined graphically.

blood platelets = conditions: in vitro; cited from earlier work
[2] = tested on: smooth muscle of the vas deferens; conditions: cited from earlier work
[3] = tested on: human platelet aggregation; conditions: result in words; cited from earlier work
[4] = tested on: female reproductive system; conditions: cited from earlier work

Structure (SMILES): CCCCC[C@H](O)/C=C/[C@H]1[C@H](O)CC(=O)[C@@H]1C/C=C\CCCC(=O)O [PGE2]
- effect on tracheal smooth muscle (tracheal smooth muscle): relax

Structure (SMILES): COC(=O)CCCCCC[C@H]1C(=O)C[C@@H](O)[C@@H]1/C=C/[C@@H](O)C1CC2CCC2C1 (stereo partly drawn) [TR-4099, methyl 7-{3R-hydroxy-5-oxo-2R-[2S-hydroxy-3-(bicyclo[3.2.0]hept-3-yl)-1E-propenyl]cyclopent-1R-yl)heptanoae]
- Activity Value Test B (% decrease in acidity) (gastric secretion): 1 (26-50, not significant)
- Activity Value Test D (ED50 mmHg, dose decreasing blood pressure by 50 mmHg) (blood pressure): 0 (>10.0)
- Activity Value Test C (ED100 ml/min, dose changing bloodflow by 100 ml/min) (femoral blood flow): 0 (>10.0)
- Activity Value Test A (ED50, inhibition of platelet aggregation) [1]: 2 (>0.1≤1.0)

Structure (SMILES): COC(=O)CCCCCC[C@H]1C(=O)C[C@@H](O)[C@@H]1/C=C/[C@@H](O)CCCCC1CCCC2CCCCC21 (stereo partly drawn) [TR-4172]
- Activity Value Test B (% decrease in acidity) (gastric secretion): 0 (<26)
- Activity Value Test D (ED50 mmHg, dose decreasing blood pressure by 50 mmHg) (blood pressure): 0 (>10.0)
- Activity Value Test C (ED100 ml/min, dose changing bloodflow by 100 ml/min) (femoral blood flow): 0 (>10.0)
- Activity Value Test A (ED50, inhibition of platelet aggregation) [1]: 1 (>1.0)

Structure (SMILES): CCCCC[C@H](O)/C=C/[C@H]1[C@H](O)CC(=O)[C@@H]1CCCCCCC(=O)O [PGE1, prostaglandin E1]
- thrombogenesis (blood platelets): inhibits thrombogenesis in vitro
- effect on tracheal smooth muscle (tracheal smooth muscle): relax
- contraction of the smooth muscle of the vas deferens [2]: contracts the smooth muscle of the vas deferens
- inhibition of platelet aggregation by natural prostaglandins [3]: displays a similar activity

Structure (SMILES): CCCCC[C@H](O)/C=C/[C@@H]1[C@@H](C/C=C\CCCC(=O)O)[C@@H](O)C[C@H]1O [PGF2α]
- effect on tracheal smooth muscle (tracheal smooth muscle): contracts the smooth muscle
- spontaneous abortions ([4]; early pregnancy): induces spontaneous abortions in early pregnancy
- effect on fertility / gestation ([4]; female reproductive system): contragestational effects

Structure (SMILES): COC(=O)CCCCCC[C@H]1C(=O)C=C[C@@H]1/C=C/[C@@H](O)CCCCC1CCC2CCC1C2 (stereo partly drawn) [TR-4118, methyl 7-{5-oxo-2R-[3S-hydroxy-7-(bicyclo[3.2.1]oct-2-yl)-1E-heptenyl]cyclopent-3-en-1R-yl}heptanoate]
- Activity Value Test B (% decrease in acidity) (gastric secretion): 0 (<26)
- Activity Value Test D (ED50 mmHg, dose decreasing blood pressure by 50 mmHg) (blood pressure): 0 (>10.0)
- Activity Value Test C (ED100 ml/min, dose changing bloodflow by 100 ml/min) (femoral blood flow): 0 (>10.0)
- Activity Value Test A (ED50, inhibition of platelet aggregation) [1]: 1 (>1.0)

Structure (SMILES): COC(=O)CCCCCC[C@H]1C(=O)C=C[C@@H]1/C=C/[C@H](O)CCCCC1CCC2CCC1C2 (stereo partly drawn) [TR-4119, methyl 7-{5-oxo-2R-[3R-hydroxy-7-(bicyclo[3.2.1]oct-2-yl)-1E-hepentyl]cyclopent-3-en-1R-yl}heptanoate]
- Activity Value Test B (% decrease in acidity) (gastric secretion): 0 (<26)
- Activity Value Test D (ED50 mmHg, dose decreasing blood pressure by 50 mmHg) (blood pressure): 0 (>10.0)
- Activity Value Test C (ED100 ml/min, dose changing bloodflow by 100 ml/min) (femoral blood flow): 0 (>10.0)
- Activity Value Test A (ED50, inhibition of platelet aggregation) [1]: 1 (>1.0)
